Results published in ChEMBL document CHEMBL1201862, “PubChem BioAssay data set” (2004).
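Each compound was tested at five concentrations against cells in 96-well plates for 48 hours. GI50 marks 50% less growth.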 Calls of active or inactive are those of the source. Rule as the data show it: active = GI50 up to about 1.1 µM and inactive = higher. Non-standard residues stand in square brackets, D forms with d. Residues, ends and D or L forms follow the SMILES beside them. *: point of attachment. Bn2Val = CC(C)[C@@H](C(=O)*)N(Cc1ccccc1)Cc1ccccc1; NH(4-Cl-benzyl) = Clc1ccc(CN*)cc1; NMeV = CN[C@H](C(=O)O)C(C)C; dNMeA = CN[C@H](C)C(=O)O

Assays:
Test in all cases: NCI anticancer screen, dose series, 48 h
SK-MEL-2 = tested on: SK-MEL-2
OVCAR-8 = tested on: OVCAR-8
HCT-15 = tested on: HCT-15
RPMI-8226 = tested on: RPMI-8226
T47D = tested on: T47D
UO-31 = tested on: UO-31
Hs-578T = tested on: Hs-578T
A498 = tested on: A498
TK-10 = tested on: TK-10
MOLT-4 = tested on: MOLT-4
MDA-MB-435 = tested on: MDA-MB-435
SNB-19 = tested on: SNB-19
RXF 393 = tested on: RXF 393
M14 = tested on: M14
SF-295 = tested on: SF-295
HCT-116 = tested on: HCT-116
NCI-H460 = tested on: NCI-H460
EKVX = tested on: EKVX
IGROV-1 = tested on: IGROV-1
HCC 2998 = tested on: HCC 2998

Row | SMILES | GI50 (SK-MEL-2) | GI50 (OVCAR-8) | GI50 (HCT-15) [µM] | GI50 (RPMI-8226) | GI50 (T47D) | GI50 (UO-31) | GI50 (Hs-578T) | GI50 (A498) | GI50 (TK-10) | GI50 (MOLT-4) | GI50 (MDA-MB-435) | GI50 (SNB-19) | GI50 (RXF 393) | GI50 (M14) | GI50 (SF-295) | GI50 (HCT-116) | GI50 (NCI-H460) | GI50 (EKVX) | GI50 (IGROV-1) | GI50 (HCC 2998)
1 | Cc1nn(C(=O)c2ccccc2O)c2c1C(c1ccco1)SC(=N)N2 (stereo unspecified) | > 10 µM (inactive) | 3.61 µM (inactive) | 3.53 | 4.43 µM (inactive) | 4.83 µM (inactive) | 5.6 µM (inactive) | 6.92 µM (inactive) | 6.07 µM (inactive) | > 10 µM (inactive) | 3.61 µM (inactive) | 7.29 µM (inactive) | > 10 µM (inactive) | 7.1 µM (inactive) | 3.5 µM (inactive) | > 10 µM (inactive) | 3.34 µM (inactive) | 4.32 µM (inactive) | > 10 µM (inactive) | 4.42 µM (inactive) | –
2 | CC(C)[C@H](NC(=O)[C@H](C(C)C)N(Cc1ccccc1)Cc1ccccc1)C(=O)N(C)[C@H](C(=O)N1CCC[C@H]1C(=O)N(C)[C@H](C)C(=O)NCc1ccc(Cl)cc1)C(C)C (Bn2Val-V[NMeV]P[dNMeA]-{NH(4-Cl-benzyl)}) | 1.62 µM (inactive) | 4.22 µM (inactive) | 3.13 | 2.69 µM (inactive) | 3.51 µM (inactive) | – | 1.05 µM (active) | – | 5.87 µM (inactive) | 2.42 µM (inactive) | 4.03 µM (inactive) | 4.24 µM (inactive) | 1.53 µM (inactive) | 4.01 µM (inactive) | 3.11 µM (inactive) | 3.02 µM (inactive) | 3.96 µM (inactive) | 2.46 µM (inactive) | 2.69 µM (inactive) | –
3 | Oc1ccc(Cl)cc1/C=N/c1cnc2ccccc2c1 | 27.2 µM (inactive) | 27 µM (inactive) | 4.4 | 13.1 µM (inactive) | 4.81 µM (inactive) | 45.6 µM (inactive) | > 68.9 µM (inactive) | > 100 µM (inactive) | > 100 µM (inactive) | 2.84 µM (inactive) | 36.7 µM (inactive) | 29 µM (inactive) | > 100 µM (inactive) | 16.9 µM (inactive) | 36.7 µM (inactive) | 11.3 µM (inactive) | 33.7 µM (inactive) | 29.7 µM (inactive) | 16 µM (inactive) | –
4 | O=C1C=C(NCCc2cc(Br)c(O)c(Br)c2)C(=O)c2[nH]cnc21 | 23.4 µM (inactive) | 38.7 µM (inactive) | 18 | > 10 µM (inactive) | 30.3 µM (inactive) | 75 µM (inactive) | 7.35 µM (inactive) | – | 89.7 µM (inactive) | > 10 µM (inactive) | 15.6 µM (inactive) | 36.1 µM (inactive) | 19.5 µM (inactive) | 24.6 µM (inactive) | 30.5 µM (inactive) | 7.35 µM (inactive) | 11.1 µM (inactive) | 96.2 µM (inactive) | 17.6 µM (inactive) | 11.5 µM (inactive)
5 | CCOC(=O)Cc1ccc(Nc2nc3cc(C(F)(F)F)ccc3nc2C(=O)OCC)cc1 | 61.1 µM (inactive) | 67.5 µM (inactive) | > 100 | – | > 100 µM (inactive) | > 100 µM (inactive) | 30 µM (inactive) | 32.7 µM (inactive) | 49.3 µM (inactive) | > 100 µM (inactive) | > 100 µM (inactive) | 27.5 µM (inactive) | 20.5 µM (inactive) | > 100 µM (inactive) | 63.2 µM (inactive) | 81.8 µM (inactive) | > 100 µM (inactive) | > 100 µM (inactive) | > 100 µM (inactive) | –
6 | COC(=O)c1cn(CCCC(=O)O)nn1 | > 100 µM (inactive) | > 100 µM (inactive) | > 100 | – | > 100 µM (inactive) | > 100 µM (inactive) | > 100 µM (inactive) | – | > 100 µM (inactive) | > 100 µM (inactive) | > 100 µM (inactive) | > 100 µM (inactive) | > 100 µM (inactive) | – | > 100 µM (inactive) | > 100 µM (inactive) | > 100 µM (inactive) | > 100 µM (inactive) | > 100 µM (inactive) | > 100 µM (inactive)
7 | O=C1CC(n2ccnc2)c2c(Cl)sc(Cl)c21 (stereo unspecified) | 21.4 µM (inactive) | 13.1 µM (inactive) | 14.2 | 2.28 µM (inactive) | 21.9 µM (inactive) | 14 µM (inactive) | 30.4 µM (inactive) | – | 20.2 µM (inactive) | 3.86 µM (inactive) | 17.1 µM (inactive) | 20.3 µM (inactive) | 16.4 µM (inactive) | 15.3 µM (inactive) | 27.4 µM (inactive) | 14.2 µM (inactive) | 26 µM (inactive) | 19.2 µM (inactive) | 12.7 µM (inactive) | –
8 | O=C(NC1CCN(Cc2ccccc2)CC1)c1ccccc1I | 23.4 µM (inactive) | 39.8 µM (inactive) | 17.7 | 36.3 µM (inactive) | 22.2 µM (inactive) | 15.8 µM (inactive) | 17.9 µM (inactive) | 57 µM (inactive) | 21.6 µM (inactive) | 17 µM (inactive) | 17.4 µM (inactive) | 51.4 µM (inactive) | 43.9 µM (inactive) | 18.7 µM (inactive) | 20.2 µM (inactive) | 16.7 µM (inactive) | 24.7 µM (inactive) | 43.3 µM (inactive) | 42.6 µM (inactive) | –
